Experiments:
[1] = test system: H1299 cells (BRG1−/BRM+ cell line); assay: Cell viability test, tetrazolium salt (MTT) method; format: cell-based; conditions: Homo sapiens, NCI-H1299, cultured 3-4 days with compound, OD 490 nm
Description: A tetrazolium salt (MTT) method is used for determining the pharmacodynamics activity of the compounds of the present invention by using H1299 cells as the cell line, wherein the cell line has deletion of the BRG1 gene (BRG1−), and has no deletion of the BRM gene (BRM+). That is, the cells of the cell line cannot express a BRG1 protein, but can normally express a BRM protein. Small molecules that could prevent the BRM protein from interacting with the chromosomes in the cells, could prevent the BRM protein from exerting functions in the cells. According to the law of synergistic lethality, in a BRG1-gene-deleted cell, if the function of the BRM protein is blocked, cell death will be caused, thereby achieving the function that the small molecules kill cancer cells.
The specific steps of the test are as follows: • (1) different experimental cell lines are subcultured into a 96-well plate, and to prevent a marginal effect, the peripheries of the 96-well plate are added with 100 μL of PBS as a blank, wherein the cell line as used is H1299 cells (BRG1−/BRM+cell line); • (2) when the cells are in adherent growth to be 40-50%, different concentrations of drug molecules and DMSO as controls are added, the cells treated with the small molecules continue to be cultured for 3-4 days, and the medium is replaced by a medium supplemented with small molecules during the culture; • (3) after the 96-well plate treated with DMSO in the control group is full of the cells, each well is added with 20 μL of a MTT mother liquor (5 mg/mL); • (4) the cell plate is placed back into a […] incubator of 37° C. and continue to be incubated for 4 hours; • (5) the MTT solution is pipetted off, and each well is added with 150 μL DMSO; • (6) the 96-well plate is placed in a shaker at room temperature with protection from light for 15 min, until purple crystals are completely dissolved. • (7) The absorbance (OD) of each well is determined by a SpectraMax M5 multi-well plate reader (Molecular Devices, USA) at a wavelength of 490 nm.
According to a conventional detection method, the EC50 values of respective compounds (small molecules) are determined, and the results are summarized in Table 1.

[2] = target: BRM protein (Homo sapiens, UniProt P51531); assay: Ki of compounds (Table 1; no method described); format: binding
Sequence of BRM protein (P51531 whole entry): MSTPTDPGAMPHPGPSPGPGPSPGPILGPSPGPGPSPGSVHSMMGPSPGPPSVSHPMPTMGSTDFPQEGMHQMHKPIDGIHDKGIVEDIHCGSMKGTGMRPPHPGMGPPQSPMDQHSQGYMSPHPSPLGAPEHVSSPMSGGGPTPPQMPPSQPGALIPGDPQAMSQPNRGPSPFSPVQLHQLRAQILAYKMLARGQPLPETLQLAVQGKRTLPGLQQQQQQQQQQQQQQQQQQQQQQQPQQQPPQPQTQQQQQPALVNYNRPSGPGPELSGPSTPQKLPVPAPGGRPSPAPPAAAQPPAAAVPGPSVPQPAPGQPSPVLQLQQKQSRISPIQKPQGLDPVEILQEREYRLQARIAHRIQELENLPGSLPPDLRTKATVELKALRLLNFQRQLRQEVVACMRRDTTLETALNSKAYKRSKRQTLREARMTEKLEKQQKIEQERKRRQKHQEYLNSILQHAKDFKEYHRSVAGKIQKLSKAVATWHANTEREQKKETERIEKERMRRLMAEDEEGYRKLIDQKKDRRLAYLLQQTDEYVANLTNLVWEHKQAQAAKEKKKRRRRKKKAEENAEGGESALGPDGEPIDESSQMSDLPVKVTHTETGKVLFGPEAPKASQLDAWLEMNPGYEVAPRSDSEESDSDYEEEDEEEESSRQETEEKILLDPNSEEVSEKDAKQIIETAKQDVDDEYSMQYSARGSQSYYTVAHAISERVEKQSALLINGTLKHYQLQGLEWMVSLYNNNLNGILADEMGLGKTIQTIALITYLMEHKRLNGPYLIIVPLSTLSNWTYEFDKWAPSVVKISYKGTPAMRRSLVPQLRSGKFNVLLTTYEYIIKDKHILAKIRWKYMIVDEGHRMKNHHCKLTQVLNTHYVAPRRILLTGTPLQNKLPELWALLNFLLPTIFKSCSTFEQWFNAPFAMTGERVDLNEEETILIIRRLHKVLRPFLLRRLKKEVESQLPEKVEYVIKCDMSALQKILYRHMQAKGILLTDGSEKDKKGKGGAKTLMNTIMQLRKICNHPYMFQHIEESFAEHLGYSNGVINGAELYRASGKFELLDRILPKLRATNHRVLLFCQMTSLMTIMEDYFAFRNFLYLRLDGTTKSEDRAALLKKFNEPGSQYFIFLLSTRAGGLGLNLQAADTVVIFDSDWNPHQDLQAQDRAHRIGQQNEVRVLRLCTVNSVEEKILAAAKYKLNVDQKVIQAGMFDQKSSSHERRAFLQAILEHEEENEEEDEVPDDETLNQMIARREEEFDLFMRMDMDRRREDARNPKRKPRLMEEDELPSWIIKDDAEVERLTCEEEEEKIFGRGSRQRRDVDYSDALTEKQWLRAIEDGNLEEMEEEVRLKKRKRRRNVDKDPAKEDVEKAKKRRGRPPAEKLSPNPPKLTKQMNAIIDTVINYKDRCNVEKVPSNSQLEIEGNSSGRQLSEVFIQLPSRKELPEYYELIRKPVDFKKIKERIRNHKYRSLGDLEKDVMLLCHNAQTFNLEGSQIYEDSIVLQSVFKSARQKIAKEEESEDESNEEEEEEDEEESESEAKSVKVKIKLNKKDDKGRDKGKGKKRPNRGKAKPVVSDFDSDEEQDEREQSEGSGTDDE

SMILES | EC50 [1] [µM] | Ki [2] [µM]
Nc1c(F)ccc(O)c1-c1cc(-c2ccc(Br)cc2)[nH]n1 [BRM2-4] | 6.7 | 1.8
Nc1cccc(O)c1-c1cc(-c2ccc(Br)cc2)[nH]n1 [BRM2-6] | 12 | 2.3
CC(C)(C)c1ccc(-c2cc(-c3cc(F)ccc3O)n[nH]2)cc1 [BRM2-8] | 8.5 | 2.2
CCc1ccc(-c2cc(-c3cc(F)ccc3O)n[nH]2)cc1 [BRM2-9] | > 20 | 4.6
Cc1ccccc1-c1cc(-c2cc(F)ccc2O)n[nH]1 [BRM2-11] | > 20 | 1.6
Nc1c(F)ccc(O)c1-c1cc(-c2ccc(-c3ccc(F)cc3)cc2)[nH]n1 [BRM2-22] | 3.3 | 1.5
Cc1cccc(C)c1-c1ccc(-c2cc(-c3cc(F)ccc3O)n[nH]2)cc1 [BRM2-27] | > 20 | 2.7
CS(=O)(=O)c1ccc(-c2ccc(-c3cc(-c4cc(F)ccc4O)n[nH]3)cc2)cc1 [BRM2-30] | 10.5 | 2
CN1CCCN(c2ccc(-c3cc(-c4cc(F)ccc4O)n[nH]3)cc2)CC1 [BRM2-31] | 1.7 | 0.9
CN1CCN(c2ccc(-c3cc(-c4cc(F)ccc4O)n[nH]3)cc2)CC1 [BRM2-32] | 5.8 | 3.7
Oc1ccc(F)cc1-c1cc(-c2ccc(N3CCCCC3)cc2)[nH]n1 [BRM2-33] | 15 | 2.7
CN1CCN(c2ccccc2-c2cc(-c3cc(F)ccc3O)n[nH]2)CC1 [BRM2-34] | 7.6 | 1.4
CN1CCN(c2cccc(-c3cc(-c4cc(F)ccc4O)n[nH]3)c2)CC1 [BRM2-39] | 9.3 | 1.8
Oc1ccc(F)cc1-c1cc(N2CC3CC2CN3c2ccccn2)[nH]n1 (stereo not shown) [BRM2-41] | 13.5 | 2.7
O=C(Nc1ccc(-c2cc(-c3cc(F)ccc3O)n[nH]2)cc1)c1c(F)cccc1F [BRM2-105] | > 20 | 4.1
O=C(Nc1ccc(-c2cc(-c3cc(F)ccc3O)n[nH]2)cc1)C12CC3CC(CC(C3)C1)C2 [BRM2-106] | 0.9 | 0.2
Cc1ccc(C(=O)Nc2ccc(-c3cc(-c4cc(F)ccc4O)n[nH]3)cc2)cn1 [BRM2-111] | 3.8 | 0.8
O=C(Nc1ccc(-c2cc(-c3cc(F)ccc3O)n[nH]2)cc1)c1ccccn1 [BRM2-112] | 6.5 | 0.9
COc1cccc(C(=O)Nc2ccc(-c3cc(-c4cc(F)ccc4O)n[nH]3)cc2)c1OC [BRM2-113] | > 20 | 2
O=C(Nc1ccc(-c2cc(-c3cc(F)ccc3O)n[nH]2)cc1)c1cccc(F)c1F [BRM2-114] | 11.4 | 3
O=C(Nc1ccc(-c2cc(-c3cc(F)ccc3O)n[nH]2)cc1)c1cccnc1 [BRM2-121] | 2.4 | 0.6

SMILES | EC50 [1] [µM] | Ki [2] [µM]
O=C(Nc1ccc(-c2cc(-c3cc(F)ccc3O)n[nH]2)cc1)c1ccnc(Cl)c1 [BRM2-123] | 2.8 | 0.7
O=C(Nc1ccc(-c2cc(-c3cc(F)ccc3O)n[nH]2)cc1)c1cnccn1 [BRM2-124] | 1.5 | 0.6
O=C(NCc1ccc(F)cc1)c1cc(-c2cc(F)ccc2O)n[nH]1 [BRM2-136] | 18 | 3
O=C(NCCc1ccc(O)cc1)c1cc(-c2cc(F)ccc2O)n[nH]1 [BRM2-137] | > 20 | 1.1
O=C(NCc1ccc(O)cc1)c1cc(-c2cc(F)ccc2O)n[nH]1 [BRM2-138] | > 20 | 2
O=C(NCCc1ccc(Cl)cc1)c1cc(-c2cc(F)ccc2O)n[nH]1 [BRM2-140] | 14.7 | 2
CN(Cc1ccccc1)C(=O)c1cc(-c2cc(F)ccc2O)n[nH]1 [BRM2-143] | 17.3 | 2.8
CCN(Cc1ccccc1)C(=O)c1cc(-c2cc(F)ccc2O)n[nH]1 [BRM2-144] | > 20 | 4.6
CC(C)N(Cc1ccccc1)C(=O)c1cc(-c2cc(F)ccc2O)n[nH]1 [BRM2-145] | > 20 | 5.3
COC(=O)C(CCS(C)(=O)=O)NC(=O)c1cc(-c2cc(F)ccc2O)n[nH]1 (stereo not shown) [BRM2-149] | 8.9 | 1.2
COC(=O)C1CCCN1C(=O)c1cc(-c2cc(F)ccc2O)n[nH]1 (stereo not shown) [BRM2-150] | 10.3 | 1.8
COC(=O)C(Cc1cnc[nH]1)NC(=O)c1cc(-c2cc(F)ccc2O)n[nH]1 (stereo not shown) [BRM2-152] | 2.5 | 0.5
NC(=O)CCC(NC(=O)c1cc(-c2cc(F)ccc2O)n[nH]1)C(=O)N1CCOCC1 (stereo not shown) [BRM2-156] | 1.7 | 0.4
O=C(NCCc1ccc(F)cc1)c1cc(-c2cc(F)ccc2O)n[nH]1 [BRM2-157] | 4.3 | 0.8
Nc1cc(-c2cc(F)ccc2O)n[nH]1 [BRM2-160] | 18.2 | 3.2
O=C(Nc1cc(-c2cc(F)ccc2O)n[nH]1)c1ccccc1 [BRM2-162] | > 20 | 6.8
O=C(Nc1cc(-c2cc(F)ccc2O)n[nH]1)c1ccc(O)cc1 [BRM2-163] | 17.2 | 4.4
O=C(Cc1ccc(O)cc1)Nc1cc(-c2cc(F)ccc2O)n[nH]1 [BRM2-164] | > 20 | 6.9
O=C(Nc1cc(-c2cc(F)ccc2O)n[nH]1)c1cnccn1 [BRM2-166] | 7.3 | 1.7
O=C(Cc1ccc(F)cc1)Nc1cc(-c2cc(F)ccc2O)n[nH]1 [BRM2-168] | 13.4 | 2.5

— US11332461B2, “2-(1H-pyrazol-3-yl) phenol compound and use thereof” (BEIJING JIALIN PHARMACEUTICAL INC., priority 2017, dated 2022)
